Experimental data: ChEMBL document CHEMBL3271999, “Antimycotic imidazoles. 2. Synthesis and antimycotic properties of 1-[2-(arylalkyl)-2-phenylethyl]-1H-imidazoles” (1977)
The source made the active and inactive calls. The rule behind the calls is not given here.

What was measured:
[1] = test system: Staphylococcus haemolyticus; test: Antibacterial activity against Staphylococcus haemolyticus assessed as lowest dose level for total inhibition of bacterial growth; assay type: functional
[2] = test system: Streptococcus pyogenes; test: Antibacterial activity against Streptococcus pyogenes assessed as lowest dose level for total inhibition of bacterial growth; assay type: functional
[3] = test system: Candida tropicalis; test: Antifungal activity against Candida tropicalis assessed as lowest dose level for total inhibition of fungal growth; assay type: functional
[4] = test system: Microsporum canis; test: Antifungal activity against Microsporum canis assessed as lowest dose level for total inhibition of fungal growth; assay type: functional
[5] = test system: Phialophora verrucosa; test: Antifungal activity against Phialophora verrucosa assessed as lowest dose level for total inhibition of fungal growth; assay type: functional
[6] = test system: Erysipelothrix rhusiopathiae; test: Antibacterial activity against Erysipelothrix insidiosa assessed as lowest dose level for total inhibition of bacterial growth; assay type: functional
[7] = test system: Cryptococcus neoformans; test: Antifungal activity against Cryptococcus neoformans assessed as lowest dose level for total inhibition of fungal growth; assay type: functional
[8] = test system: Trichophyton rubrum; test: Antifungal activity against Trichophyton rubrum assessed as lowest dose level for total inhibition of fungal growth; assay type: functional
[9] = test system: Trichophyton mentagrophytes; test: Antifungal activity against Trichophyton mentagrophytes assessed as lowest dose level for total inhibition of fungal growth; assay type: functional
[10] = test system: Sporothrix schenckii; test: Antifungal activity against Sporothrix schenckii assessed as lowest dose level for total inhibition of fungal growth; assay type: functional
[11] = test system: Saprolegnia; test: Antifungal activity against Saprolegnia species assessed as lowest dose level for total inhibition of fungal growth; assay type: functional
[12] = test system: Candida albicans; test: Antifungal activity against Candida albicans assessed as lowest dose level for total inhibition of fungal growth; assay type: functional
[13] = test system: Candida albicans; test: In vivo antifungal activity against Candida albicans topically infected in guinea pig assessed as animal cured at 10 mg/kg, po; assay type: functional, organism-based; set-up: dose 10 mg/kg
[14] = test system: Mucor; test: Antifungal activity against Mucor species assessed as lowest dose level for total inhibition of fungal growth; assay type: functional
[15] = test system: Aspergillus fumigatus; test: Antifungal activity against Aspergillus fumigatus assessed as lowest dose level for total inhibition of fungal growth; assay type: functional

SMILES | Activity [1] | Activity [2] | Activity [3] | Activity [4] | Activity [5] | Activity [6] | Activity [7] | Activity [8] | Activity [9] | Activity [10] | Activity [11] | Activity [12] | Activity [13] | Activity [14] | Activity [15]
Clc1ccc(CCC(Cn2ccnc2)c2ccc(Cl)cc2Cl)cc1.O=[N+]([O-])O (stereo not drawn) | 1 µg/mL | <1 µg/mL | 10 µg/mL | 10 µg/mL | 10 µg/mL | <1 µg/mL | <1 µg/mL | <1 µg/mL | <1 µg/mL | <1 µg/mL | 10 µg/mL | 10 µg/mL | inactive | 100 µg/mL | 100 µg/mL
Clc1ccc(CC(Cn2ccnc2)c2ccccc2Cl)cc1.O=[N+]([O-])O (stereo not drawn) | 100 µg/mL | 1 µg/mL | >100 µg/mL | 10 µg/mL | 100 µg/mL | 1 µg/mL | <1 µg/mL | <1 µg/mL | <1 µg/mL | 10 µg/mL | 100 µg/mL | 10 µg/mL | Active | 100 µg/mL | 100 µg/mL
Clc1ccc(CC(Cn2ccnc2)c2ccccc2Br)cc1.O=[N+]([O-])O (stereo not drawn) | 10 µg/mL | 1 µg/mL | >100 µg/mL | 100 µg/mL | 100 µg/mL | <1 µg/mL | <1 µg/mL | <1 µg/mL | <1 µg/mL | 10 µg/mL | 100 µg/mL | 10 µg/mL |  | 100 µg/mL | 100 µg/mL
Clc1ccc(C(Cc2ccc(Cl)cc2Cl)Cn2ccnc2)cc1.O=[N+]([O-])O (stereo not drawn) | 10 µg/mL | 1 µg/mL | 100 µg/mL | 10 µg/mL | 100 µg/mL | <1 µg/mL | <1 µg/mL | <1 µg/mL | <1 µg/mL | 10 µg/mL | 100 µg/mL | 100 µg/mL |  | 100 µg/mL | 100 µg/mL
Cc1ccccc1C(Cc1ccc(Cl)cc1Cl)Cn1ccnc1.O=[N+]([O-])O (stereo not drawn) | 10 µg/mL | 10 µg/mL | 100 µg/mL | 10 µg/mL | 100 µg/mL | 1 µg/mL | 10 µg/mL | <1 µg/mL | <1 µg/mL | 10 µg/mL | 100 µg/mL | 100 µg/mL |  | 10 µg/mL | 10 µg/mL
Clc1ccc(C(Cc2ccc(Br)cc2)Cn2ccnc2)c(Cl)c1.O=[N+]([O-])O (stereo not drawn) | 10 µg/mL | <1 µg/mL | 10 µg/mL | 10 µg/mL | 10 µg/mL | <1 µg/mL | <1 µg/mL | <1 µg/mL | <1 µg/mL | 10 µg/mL | 100 µg/mL | 10 µg/mL | inactive | 10 µg/mL | 100 µg/mL
Clc1ccc(C(CCc2ccccc2)Cn2ccnc2)c(Cl)c1.O=[N+]([O-])O (stereo not drawn) | 1 µg/mL | <1 µg/mL | >100 µg/mL | 10 µg/mL | 10 µg/mL | <1 µg/mL | <1 µg/mL | <1 µg/mL | <1 µg/mL | 10 µg/mL | 10 µg/mL | 100 µg/mL | inactive | 100 µg/mL | 100 µg/mL
Clc1ccc(COC(Cn2ccnc2)c2ccc(Cl)cc2Cl)c(Cl)c1 (stereo not drawn) [MICONAZOLE] | 10 µg/mL | <1 µg/mL | 100 µg/mL | 1 µg/mL | 100 µg/mL | <1 µg/mL | 1 µg/mL | <1 µg/mL | <1 µg/mL | 1 µg/mL | 10 µg/mL | 10 µg/mL |  | >100 µg/mL | 10 µg/mL
Clc1ccccc1C(Cc1c(Cl)cccc1Cl)Cn1ccnc1.O=[N+]([O-])O (stereo not drawn) | 1 µg/mL | <1 µg/mL | >100 µg/mL | <1 µg/mL | 100 µg/mL | 1 µg/mL | 10 µg/mL | <1 µg/mL | <1 µg/mL | 10 µg/mL | 100 µg/mL | 100 µg/mL |  | >100 µg/mL | 10 µg/mL
Clc1ccc(C(Cc2ccccc2Cl)Cn2ccnc2)c(Cl)c1.O=[N+]([O-])O (stereo not drawn) | 10 µg/mL | <1 µg/mL | <1 µg/mL | 10 µg/mL | 10 µg/mL | <1 µg/mL | <1 µg/mL | <1 µg/mL | <1 µg/mL | <1 µg/mL | 10 µg/mL | 100 µg/mL |  | 100 µg/mL | 100 µg/mL
Clc1ccc(C(Cc2c(Cl)cccc2Cl)Cn2ccnc2)cc1.O=[N+]([O-])O (stereo not drawn) | 10 µg/mL | <1 µg/mL | >100 µg/mL | 10 µg/mL | 100 µg/mL | <1 µg/mL | <1 µg/mL | 10 µg/mL | <1 µg/mL | 10 µg/mL | 100 µg/mL | >100 µg/mL |  | 10 µg/mL | 100 µg/mL
Cc1ccccc1C(Cc1c(Cl)cccc1Cl)Cn1ccnc1.O=[N+]([O-])O (stereo not drawn) | 10 µg/mL | <1 µg/mL | >100 µg/mL | 10 µg/mL | 100 µg/mL | <1 µg/mL | 100 µg/mL | <1 µg/mL | <1 µg/mL | 100 µg/mL | 100 µg/mL | >100 µg/mL |  | 100 µg/mL | 100 µg/mL
Clc1ccc(C(CCc2ccccc2Cl)Cn2ccnc2)c(Cl)c1.O=[N+]([O-])O (stereo not drawn) | 1 µg/mL | 1 µg/mL | >100 µg/mL | 10 µg/mL | 100 µg/mL | <1 µg/mL | <1 µg/mL | <1 µg/mL | <1 µg/mL | <1 µg/mL | 100 µg/mL | 10 µg/mL |  | 100 µg/mL | 100 µg/mL
Clc1ccc(C(Cc2c(Cl)cccc2Cl)Cn2ccnc2)c(Cl)c1.O=[N+]([O-])O (stereo not drawn) | 100 µg/mL | 1 µg/mL | 100 µg/mL | 10 µg/mL | 100 µg/mL | 1 µg/mL | <1 µg/mL | <1 µg/mL | <1 µg/mL | <1 µg/mL | 100 µg/mL | 100 µg/mL |  | 100 µg/mL | 100 µg/mL
Cc1ccccc1C(Cc1ccc(Cl)cc1)Cn1ccnc1.O=[N+]([O-])O (stereo not drawn) | 10 µg/mL | <1 µg/mL | >100 µg/mL | 10 µg/mL | 100 µg/mL | 1 µg/mL | 10 µg/mL | 10 µg/mL | <1 µg/mL | 100 µg/mL | 100 µg/mL | >100 µg/mL |  | 100 µg/mL | 100 µg/mL
Clc1ccc(C(CCc2ccc(Br)cc2)Cn2ccnc2)c(Cl)c1.O=[N+]([O-])O (stereo not drawn) | 10 µg/mL | <1 µg/mL | 10 µg/mL | 10 µg/mL | 100 µg/mL | <1 µg/mL | <1 µg/mL | <1 µg/mL | <1 µg/mL | 10 µg/mL | 10 µg/mL | >100 µg/mL |  | >100 µg/mL | 100 µg/mL
